Assays:
A2780S and A2780CP cells = assay: Percent apoptotic nuclei after cisplatin treatment of transfected cells; assay type: cell-based
Experimental: FIGS. 4(A)-(D) is a composite figure showing modulation of BAD-protein phosphorylation status influences cisplatin sensitivity. OVCA cell lines (A) A2780S and (B) A2780CP were transfected with Flag vectors expressing wild-type BAD (WT) or BAD harboring serine (S) to alanine point mutations in serine-112, -136, or -155(S112A, S136A, S155A). These S to A phosphorylation site mutations prevent phosphorylation of the BAD protein. Transfected cells were treated with vehicle or 1 μM (A2780S) or 10 μM (A2780CP) cisplatin for 48 hours and evaluated for the presence of apoptotic nuclei. (C) Western blot showing depletion of PP2C and PKA by siRNA. Controls included a non-targeting siRNA (NT). GAPDH was used as a loading control. (D) Percent apoptotic nuclei in A2780S cells in the presence of 1 μM cisplatin after siRNA depletion of PKA and PP2C. Error bars indicate standard error of the mean.
Morphologic assessment of condensed chromatin and fragmented DNA quantified percent apoptotic nuclei. Cells were fixed in 4% paraformaldehyde, and nuclei were stained with bis-benzimide trihydrochloride (0.5 μg/ml; Molecular Probes) and quantified using fluorescence microscopy (Marchion, et al., Synergistic interaction between histone deacetylase and topoisomerase II inhibitors is mediated through topoisomerase IIbeta. Clin Cancer Res 2005; 11:8467-8475).
Cells were transfected with siRNA drawn against different BAD pathway proteins. RNA duplexes for PP2C/PPM1A (s10909 from ABI), cAMP-dependent protein kinase (PKA; 6406 from Cell Signaling Technology, Inc., Danvers, Mass.), and vectors containing mutated BAD (pFlag-600) were transfected using the Nucleofector transfection kit, with non-targeting Silencer negative control #2 siRNA (Applied Biosystems, Inc., Foster City, Calif.), according to manufacturer's protocols (Amaxa GmbH, Koeln, Del.). The role of pBAD (serine-155) in cisplatin sensitivity was further evaluated in A2780S cells by depletion of PKA and PP2C/PPM1A using siRNA.

[1] = test system: OVCA cell lines (A2780S, A2780CP, A2008, C13); assay: CellTiter-96 MTS proliferation assay quantifying cisplatin-resistance after serial cisplatin treatment; assay type: cell-based; conditions: cells after serial in vitro cisplatin-treatment/expansion cycles vs cells prior to serial cisplatin treatment
Text: FIGS. 3(A)-(D) are a series of graphs showing BAD-protein phosphorylation is associated with platinum resistance. Cisplatin EC50 so results and percent expression of phosphorylated-BAD at serine-155 (P-BAD155), non-phosphorylated BAD (NP-BAD155), total BAD, and PP2C (PPM1A) in (A) A2780S; (B) A2780CP; (C) A2008; and (D) C13 ovarian cancer cell lines measured by MTS and immunofluorescence, respectively.
Cell lines were induced for platinum resistance. […] Both cisplatin-resistance and genome-wide expression changes were measured serially in each cell line at baseline and after 3 and 6 cisplatin-treatment/expansion cycles. Cisplatin-resistance was quantified using CellTiter-96 MTS proliferation assays (Thermo Fisher Scientific Inc., Waltham, Mass.) and analyzed genome-wide expression using Affymetrix Human U133 Plus 2.0 GeneChips (Affymetrix, Inc., Santa Clara, Calif.) as previously described (Boren, et al., MicroRNAs and their target messenger RNAs associated with ovarian cancer response to chemotherapy. Gynecol Oncol 2009; 113:249-255; Bild, et al., Oncogenic pathway signatures in human cancers as a guide to targeted therapies. Nature 2006; 439:353-357) (Gene Expression Omnibus (GEO) accession number GSE23553).

## N.N.[Cl][Pt][Cl] [cisplatin, cis-diammine-dichloroplatinum]
A2780S and A2780CP cells; A2780S and A2780CP transfected with BAD[S136A], BAD[S155A] vs wild-type BAD, 1 μM (A2780S) or 10 μM (A2780CP) cisplatin, 48 hours
  cisplatin-induced apoptosis: increased cisplatin-induced apoptosis
A2780S and A2780CP cells; A2780S, siRNA depletion of PKA vs non-targeting control siRNA, 1 μM cisplatin
  cisplatin-induced apoptosis: increased cisplatin-induced apoptosis
A2780S and A2780CP cells; A2780S, siRNA depletion of PP2C/PPM1A, 1 μM cisplatin
  cisplatin-induced apoptosis: decreased cisplatin-induced apoptosis
A2780S and A2780CP cells; cells transfected with BAD[S112A], 1 μM (A2780S) or 10 μM (A2780CP) cisplatin, 48 hours
  cisplatin sensitivity: no effect on cisplatin sensitivity
[1]
  cisplatin EC50: higher cisplatin EC50 values

Source: US9528982B2, “Bad phosphorylation determines ovarian cancer chemo-sensitivity and patient survival” (H. Lee Moffitt Cancer Center and Research Institute, Inc., priority 2011, dated 2016)
